Consider seven compounds from publication PMC10975434 (Pharmaceutics, 2024).

Data set [1] deals with T1, UGT2B7 (Homo sapiens, UniProt P16662).
T1 sequence (P16662 24-529): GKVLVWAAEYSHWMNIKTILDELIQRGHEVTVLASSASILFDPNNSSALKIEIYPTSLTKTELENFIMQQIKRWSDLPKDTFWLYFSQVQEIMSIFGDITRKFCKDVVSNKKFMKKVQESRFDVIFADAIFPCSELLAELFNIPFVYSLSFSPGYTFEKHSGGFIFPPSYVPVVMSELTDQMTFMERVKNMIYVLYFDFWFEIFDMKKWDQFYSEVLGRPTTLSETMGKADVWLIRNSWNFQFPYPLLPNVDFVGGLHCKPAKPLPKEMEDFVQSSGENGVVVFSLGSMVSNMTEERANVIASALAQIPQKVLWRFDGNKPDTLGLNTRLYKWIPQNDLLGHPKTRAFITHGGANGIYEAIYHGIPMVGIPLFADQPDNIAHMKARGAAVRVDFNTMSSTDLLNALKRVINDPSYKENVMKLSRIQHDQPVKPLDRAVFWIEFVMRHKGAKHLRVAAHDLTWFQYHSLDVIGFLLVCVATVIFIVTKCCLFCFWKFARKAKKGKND

For data set [2], the target named is T1, UGT2B7. In words: IC50 determination and calculated Ki, morphine glucuronidation in HLM.
Data set [3] concerns the target T1, UGT2B7. The data set can be described thus: Inhibition screening of morphine glucuronidation in pooled human liver microsomes (HLM). Particulars: 100 µM cannabinoid.
The conditions of data set [4]: cited from earlier work.
The nature of data set [5]: Estimated unbound maximum hepatic inlet concentration used for the static model. Conditions: read-out: Cmax,hepatic inlet,u, estimated from Cmax of Bansal et al., 2022 [56]. On the procedure:
(8) [I]h=fu,p×Cmax+Fa ×Fg×Ka×Dose/Qh ×Rb
For the static mechanistic modeling, hepatic blood flow (Qh) and enterocyte blood flow (Qen) were set to 1500 mL/min and 300 mL/min, respectively, and the blood-to-plasma concentration ratio (RB) was set to 0.4 [55].
C௠௔௫ ,௛௘௣௔௧௜௖ ௜௡௟௘௧ ,௨ ൌ f௨,௣ ൈ ቀC௠௔௫ ൅ ிೌ ൈ ி೒ ൈ ௄ೌ ൈ஽௢௦௘ொ೓ ൈ ோ್ቁ, where fu,p (unbound fraction in plasma) wa s set

Data set [6] deals with T2, UGT2B7 (Homo sapiens, UniProt P16662, Y268H).
T2 sequence (P16662 24-529 Y268H): T1 sequence (P16662 24-529) with Y245H
The data set can be described thus: Inhibition screening of morphine glucuronidation in rUGT2B7-overexpressing HEK293 cell microsomes. Particulars: rUGT-overexpressing microsomes and HLM.

Data set [7] has as its target T2, UGT2B7.
Data set [8] concerns the target T2, UGT2B7. In words: IC50 determination, morphine glucuronidation in rUGT2B7-overexpressing HEK293 cell microsomes.
For data set [9], the target named is T2, UGT2B7. In words: in vitro.
The conditions of data set [10]: cited from earlier work. This is another data set of the same source.
In data set [11] the test system is UGT2B7. More on the design: method as in PMID 9715839. Conditions: coadministration of zidovudine (AZT) and methadone; cited from earlier work.
Setting [12] is: read-out: Calculated Ki, Morphine-3-Glucuronide, Ki=IC50/2 assuming competitive inhibition.
The mark [13] stands for this setting: read-out: Calculated Ki, Morphine-6-Glucuronide, Ki=IC50/2 assuming competitive inhibition.
The mark [14] stands for this setting: read-out: Calculated Ki,u, Morphine-3-Glucuronide, Ki corrected with fu,inc.
The mark [15] stands for this setting: read-out: Calculated Ki,u, Morphine-6-Glucuronide, Ki corrected with fu,inc.
Setting [16] is: read-out: IC50,u, Morphine-3-Glucuronide formation, corrected for non-specific binding with fu,inc (11-OH-THC fu,inc as surrogate for 11-COOH-THC and 7-OH-CBD).
[17] abbreviates: read-out: IC50,u, Morphine-6-Glucuronide formation, corrected for non-specific binding with fu,inc (11-OH-THC fu,inc as surrogate for 11-COOH-THC and 7-OH-CBD).

Residue numbers refer to the chain shown, from its start. “And” between values parts separate entries of the source, which are not always exact repeats. Equal entries are not always repeated. Where two headings read alike, the source gives them in different places.

With “11-hydroxy-Δ^9-tetrahydrocannabinol [11-OH-THC]”, the IC50 (usually the concentration that inhibits the measured activity by half) at UGT2B7 [1] is 18 µM and 13 µM; on UGT2B7 [2] (setting [16]) it was 1.7 ± 1.6 µM; on UGT2B7 [2] (setting [17]) it was 1.2 ± 0.95 µM; against UGT2B7 [7], 12 ± 3.5 µM; at UGT2B7 [8] (setting [16]), 0.96 ± 0.27 µM; on UGT2B7 [8] (setting [17]), 0.96 ± 0.28 µM. The Ki on UGT2B7 [2] (setting [12]) was 8.82 ± 8.42 µM; at UGT2B7 [2] (setting [13]) it was 6.61 ± 5.02 µM; at UGT2B7 [2] (setting [14]) it was 0.82 ± 0.79 µM; on UGT2B7 [2] (setting [15]), 0.62 ± 0.47 µM. On UGT2B7 [3], the “inhibition of M3G and M6G formation in HLM (in words)” value (“inhibition of M3G and M6G formation” for short) is “significant inhibition”. Also, the “unbound fraction (fu,inc)” value in data set [4] (HLM) is 0.094; in data set [4] (rUGT-overexpressing microsomes), 0.078. The Cmax (commonly the highest concentration seen after dosing) was 20 nM in data set [5] (THC dose 20 mg, Oral); 10 nM in data set [5] (THC dose 25 mg, Inhalation); 30 nM in data set [5] (THC dose 70 mg, Inhalation); 50 nM in data set [5] (THC dose 100 mg, Inhalation); 100 nM in [5] (THC dose 130 mg, Oral); 120 nM in data set [5] (THC dose 160 mg, Oral). Also, the “inhibition of UGT2B7-mediated morphine metabolism (overall, in words)” value (shortened to “inhibition … (overall, in words)”) at UGT2B7 [6] is “strong inhibition”.
As for `C=C(C)[C@@H]1CCC(C(=O)O)=C[C@H]1c1c(O)cc(CCCCC)cc1O` [7-COOH-CBD, 7-carboxy-cannabidiol], the “inhibition of M3G and M6G formation” value against UGT2B7 [3] is on record as “weak to moderate inhibition”.
Regarding `C=C(C)[C@@H]1CCC(CO)=C[C@H]1c1c(O)cc(CCCCC)cc1O` [7-OH-CBD, 7-hydroxy-cannabidiol], the Ki at UGT2B7 [2] (setting [12]) is 8.59 ± 3.05 µM; on UGT2B7 [2] (setting [13]), 3.99 ± 2.54 µM; on UGT2B7 [2] (setting [14]) it was 0.81 ± 0.29 µM; at UGT2B7 [2] (setting [15]) it was 0.38 ± 0.12 µM. Besides, the IC50 at UGT2B7 [2] (setting [16]) is 1.6 ± 0.57 µM; on UGT2B7 [2] (setting [17]), 0.75 ± 0.24 µM; at UGT2B7 [7], 38 µM and 39 µM; on UGT2B7 [8] (setting [16]) it was 3 ± 2.1 µM; on UGT2B7 [8] (setting [17]), 3 ± 0.7 µM. Besides, the “inhibition of M3G and M6G formation” value at UGT2B7 [3] is “significant inhibition”. For the same compound, the Cmax is 30 nM in [5] (CBD dose 70 mg, Oral); 340 nM in data set [5] (CBD dose 700 mg, Oral); 980 nM in data set [5] (CBD dose 2000 mg, Oral). For the same compound, at UGT2B7 [6], the “inhibition … (overall, in words)” value is given as “strong inhibition”.
Take `CCCCCc1cc(O)c2c(c1)OC(C)(C)[C@@H]1CCC(C(=O)O)=C[C@@H]21` [11-COOH-THC, 11-nor-9-carboxy-Δ^9-tetrahydrocannabinol]: the IC50 on UGT2B7 [1] was 184 µM and 104 µM; at UGT2B7 [2] (setting [16]), 17 ± 3.5 µM; on UGT2B7 [2] (setting [17]), 9.8 ± 1.5 µM; on UGT2B7 [7], 47 µM and 55 µM; at UGT2B7 [8] (setting [16]), 3.7 ± 1.2 µM; at UGT2B7 [8] (setting [17]) it was 4.3 ± 1.2 µM. Moreover, the Ki at UGT2B7 [2] (setting [12]) was 91.6 ± 18.5 µM; on UGT2B7 [2] (setting [13]), 52.1 ± 8.16 µM; on UGT2B7 [2] (setting [14]) it was 8.61 ± 1.74 µM; on UGT2B7 [2] (setting [15]), 4.89 ± 0.77 µM. Further, the “inhibition of M3G and M6G formation” value on UGT2B7 [3] is “weak to moderate inhibition”. Moreover, the peak concentration (Cmax) in [5] (THC dose 20 mg, Oral) was 190 nM; in data set [5] (THC dose 25 mg, Inhalation) it was 70 nM; in [5] (THC dose 70 mg, Inhalation), 180 nM; in data set [5] (THC dose 100 mg, Inhalation), 260 nM; in data set [5] (THC dose 130 mg, Oral), 1220 nM; in data set [5] (THC dose 160 mg, Oral) it was 1500 nM. For the same compound, the “inhibition … (overall, in words)” value against UGT2B7 [6] was “more moderate inhibition”.
`CCCCCc1cc(O)c2c(c1)OC(C)(C)c1ccc(C)cc1-2` [CBN, cannabinol]: the inhibition (in general, the relative decrease from the control value, in per cent) at 100 µM is 10% on UGT2B7 [9] (microsomes of HEK293 cells overexpressing recombinant UGT2B7, probe morphine […] (morphine-3-glucuronide formation)) and 33% on UGT2B7 [9] (microsomes of HEK293 cells overexpressing recombinant UGT2B7, probe morphine […] (morphine-6-glucuronide formation)). Further, the “inhibition of M3G and M6G formation” value at UGT2B7 [3] is recorded as “did not exhibit appreciable inhibition”. In addition, the “inhibition … (overall, in words)” value on UGT2B7 [6] is reported as “no significant inhibitory activity”.
Regarding `CCCCCc1cc(O)c2c(c1)OC(C)(C)[C@@H]1CCC(C)=C[C@@H]21` [THC, Δ^9-tetrahydrocannabinol, reference compound], the IC50 against UGT2B7 [1] is 24 µM and 15 µM; on UGT2B7 [2] (setting [16]) it was 1.2 ± 0.27 µM; at UGT2B7 [2] (setting [17]) it was 0.74 ± 0.16 µM; on UGT2B7 [8] (setting [16]), 0.85 ± 0.34 µM; at UGT2B7 [8] (setting [17]) it was 0.34 ± 0.07 µM. The Ki is 12.2 ± 2.77 µM on UGT2B7 [2] (setting [12]), 7.69 ± 1.63 µM on UGT2B7 [2] (setting [13]) and 0.37 ± 0.08 µM on UGT2B7 [2] (setting [15]). Moreover, the “inhibition of M3G and M6G formation” value against UGT2B7 [3] is recorded as “significant inhibition”. In addition, the “unbound fraction (fu,inc)” value in data set [4] (HLM) is given as 0.048. In addition, the maximum concentration (Cmax) in [5] (THC dose 20 mg, Oral) was 30 nM; in data set [5] (THC dose 25 mg, Inhalation) it was 250 nM; in data set [5] (THC dose 70 mg, Inhalation), 690 nM; in data set [5] (THC dose 100 mg, Inhalation), 990 nM; in data set [5] (THC dose 130 mg, Oral) it was 200 nM; in data set [5] (THC dose 160 mg, Oral), 240 nM. Moreover, the “inhibition … (overall, in words)” value against UGT2B7 [6] is “strong inhibition”. For the same compound, the “Cmax,u” value in data set [10] (after consumption) is 20 nM. In data set [10] (value set for the static model, ref Cox et al., 2019 [45]), the “ka (first-order absorption rate constant)” value is 0.02. In addition, the “BP (blood to plasma ratio)” value in data set [10] (value set for the static model, ref Schwilke et al., 2009 [55]) is on record as 0.4.
Regarding `Cc1cn([C@H]2C[C@H](N=[N+]=[N-])[C@@H](CO)O2)c(=O)[nH]c1=O` [zidovudine], the “increase in zidovudine exposure” value in the data set with UGT2B7 [11] is 1.4 fold.
